Source: US12508323B2, “Method of treatment of colorectal, breast and lung cancer with metal containing immune agonist complexes” (HANGZHOU XINGAO BIOTECHNOLOGY CO., LTD., priority 2020, dated 2025)

Tests used:
[1] = test system: lung cancer Lewis tumor line LL/2; assay: Subcutaneous transplantation tumor model, LL/2 in C57BL/6 mice; type: in vivo; conditions: i.p. 10 mg/kg (nanobody 200 μg/mouse) once a day for 21 days
Experimental: Specific pathogen free (SPF)-grade BALB/C and C57BL/6 male mice, aged 7-8 weeks and weighing 20-22 g, were purchased from Shanghai Slac Laboratory Animal Co., Ltd (Laboratory animal quality certificate number: SCXK (Shanghai)2007-0005.
Mice were injected intraperitoneally with the immune agonist or complex with a dose of 10 mg/kg, or each injected intraperitoneally with 200 μg of the nanobody.
Administration route: intraperitoneal injection.
Frequency: once a day for consecutive 21 days.
Cancer cells were cultured, passaged, collected at the logarithmic phase of cells, and prepared into a cell suspension at a concentration of (1.0×10^7) per ml. Mice were injected with 0.2 ml of the cell suspension at the axilla of the right forelimb (cell number 2.0×10^6 cells/each), and were tumorigenic in about 8 days. These mice were randomly divided into 10 groups equally, namely, group A: negative control group (saline group), group B: positive control (cGAMP) group (dose: 10 mg/kg), group C: MncGAMP group (dose: 10 mg/kg), group D: anti-PD-L1 nanobody group, group E: anti-CD47 nanobody group, group F: anti-TfR1 nanobody group, group G: complex V group (dose: 10 mg/kg), group H: complex VI group (dose: 10 mg/kg), group I: complex IX group (dose: 10 mg/kg), and group J: complex VIII group (10 mg/kg). […]
The data were expressed as ×±s and processed by SPSS10.0 software. […]

[2] = test system: dendritic cell DCs and T cells; assay: Activation of immune cells (flow cytometry of spleen and lung cells); type: in vivo, mice; conditions: 14 days after immunization, mouse spleen and lung tissues
Experimental: Mice were raised, immunized with virus infection, and subjected to blood collection, as the same as Example 3. Isotype control nanobody was purchased from eBiosciences; antibody magnetic beads were purchased from Militeny Biotech; and flow cytometer was purchased from BD company. 14 days after immunization, mouse spleen and lung tissues were taken, ground and pounded separately, filtered with a 40-μm filter, and centrifuged at 1000 rpm for 10 min to separate unlysed immune cells. The DC cells (CD40\CD80\CD86\MHCII), T cells and (CD8+) cells were separated by the antibody magnetic beads, and added with the corresponding FAC nanobody (diluted with FACS buffer). As a negative control, the isotype control nanobody was added into the DC cells followed by incubation for 1 h, centrifugation, and rinsing with PBS. After that, the samples were analyzed by the flow cytometry to select the appropriate cells for determination of fluorescence intensity (MFI), and the results were shown in Table 8.

[3] = test system: mice with localized cerebral ischemia; assay: Local cerebral ischemia model (wire bolus method), Zea Longa 5-point behavioral score; type: in vivo; conditions: ICR mice, 10 mg/kg i.p., Zea Longa 5-point scale (0 normal to 4)
Description: Healthy male ICR mice, weighing 18-20 g, were purchased from Shanghai Slaughter Laboratory Animal Co (quality certificate number (SCXK(SH) 2007-0005)) and raised in a cleaning experimental animal room.
Local cerebral ischemia model was made by wire bolus method to verify the therapeutic effects of immune agonist complexes on cerebral ischemic brain diseases in experimental animals.
Experimental mice were anesthetized with 10% chloral hydrate intraperitoneally, and a median cervical incision was made to separate and ligate the proximal segment of the right common carotid artery, the carotid artery and branch vessels thereof. The right internal carotid artery was isolated, the pterygopalatine artery was isolated downward along the internal carotid artery, and the root was ligated for this branch. The proximal end of the internal carotid was provided with a prepared wire, and the distal end of the internal carotid was provided with an artery clip. […] Behavioral scoring was performed after surgery, and the scoring was single-blinded with reference to the Zea Longa 5-point scale, which was scored as follows: 0, normal mice with no signs of neurological injury; 1, unable to fully extend the contralateral front paw; 2, turning in a circle to the outside; 3, relatively measured tipping; and 4, unable to walk spontaneously, and loss of consciousness injury. […]

With `Nc1nc(=O)c2ncn(C3OC4COP(=O)(O)OC5C(COP(=O)(O)OC3C4O)OC(n3cnc4c(N)ncnc43)C5O)c2[nH]1` (stereo not shown) [cGAMP, 2′3′-cGAMP] the “Average tumor weight” value ([1]; n = 10, mean ± SD) was 1.138 ± 0.127 g, the “Average tumor inhibition rate (%)” value ([1]; vs negative control tumor weight) was 60.0% and the “CD8 cells (%)” value [2] was 2.3 ± 0.2%. For the same compound, the “CD40 cells (%)” value [2] was 122.6%, the “CD80 cells (%)” value [2] was 115.5% and the “CD86 cells (%)” value [2] was 18.3%. The “MHCII cells (%)” value [2] was 218.4%, the “T cells (%)” value [2] was 0.3 ± 0.2% and the “Behavioral scores (24 hours after surgery)” value [3] was 2.26 ± 0.40. The “Behavioral scores (7 days after surgery)” value [3] was 1.65 ± 0.34.
